Test system: normal adult male rats
Assay: 28-day treatment of normal adult male rats: organ weight and histology of the male reproductive tract, epididymal sperm properties
Type: in vivo
Conditions: 2.5 mg/kg subcutaneously, 28 days
Protocol: The above-described properties of antiestrogens were obtained in tests that were performed with the ICI-antiestrogen 7α-[9-(4,4,5,5,5-pentafluoropentylsulfinyl)-nonyl]-estra-1,3,5(10)-triene-3,17β-diol on normal adult male rats.
The test design and the results are described in the list below:
Observations regarding the organ weight of the male reproductive tract and sperm properties: […]

- histology of the organs studied (seminal vesicles, prostate, testicles, epididymis) (vs vehicle control): No effects
- weight of the organs studied (seminal vesicles, prostate, testicles, epididymis) (vs vehicle control): No effects
SMILES: C[C@]12CC[C@@H]3c4ccc(O)cc4C[C@@H](CCCCCCCCC[S+]([O-])CCCC(F)(F)C(F)(F)F)[C@H]3[C@@H]1CC[C@@H]2O (stereo partly drawn) [7α-[9-(4,4,5,5,5-pentafluoropentylsulfinyl)-nonyl]-estra-1,3,5(10)-triene-3,17β-diol]
- acrosomal state of sperm (epididymal sperm): Induction of an early incipient acrosomal reaction
- sperm motility (epididymal sperm): Inhibition of motility
